Reference: ChEMBL document CHEMBL1201862, “PubChem BioAssay data set” (2004)
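Where inhibition never reached the appropriate level, the endpoint shown equals the highest concentration tested. Otherwise, values were interpolated linearly from a five-concentration, 48-hour dose response in 96-well plates. GI50: concentration for 50% inhibition of growth.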 Activity calls are given as the source filed them. Cut-off read from the data, not from the text of the source: active = GI50 up to about 1.1 µM and inactive = higher.

Columns and labels:
Test in all cases: inhibition of tumour cell growth, NCI panel, 48 h
IGROV-1 = system: IGROV-1
OVCAR-4 = system: OVCAR-4
LOX IMVI = system: LOX IMVI
MCF7 = system: MCF7
MDA-N = system: MDA-N
KM12 = system: KM12
SN12C = system: SN12C
A549 = system: A549
SK-OV-3 = system: SK-OV-3
NCI/ADR-RES = system: NCI/ADR-RES
HOP-92 = system: HOP-92
T47D = system: T47D
OVCAR-8 = system: OVCAR-8
U-251 = system: U-251
HT-29 = system: HT-29
HCT-15 = system: HCT-15
786-0 = system: 786-0
NCI-H23 = system: NCI-H23
HL-60 = system: HL-60
SF-268 = system: SF-268
UACC-62 = system: UACC-62
OVCAR-3 = system: OVCAR-3
PC-3 = system: PC-3
SK-MEL-5 = system: SK-MEL-5
M14 = system: M14
HCC 2998 = system: HCC 2998
COLO 205 = system: COLO 205
SF-539 = system: SF-539
SW-620 = system: SW-620
NCI-H522 = system: NCI-H522
DU-145 = system: DU-145
SR = system: SR
SF-295 = system: SF-295
SNB-19 = system: SNB-19
BT-549 = system: BT-549
HCT-116 = system: HCT-116
MDA-MB-231 = system: MDA-MB-231
TK-10 = system: TK-10
OVCAR-5 = system: OVCAR-5
SNB-75 = system: SNB-75
K562 = system: K562
UO-31 = system: UO-31
UACC-257 = system: UACC-257
HOP-62 = system: HOP-62
CCRF-CEM = system: CCRF-CEM
MDA-MB-435 = system: MDA-MB-435
SK-MEL-28 = system: SK-MEL-28
MOLT-4 = system: MOLT-4
EKVX = system: EKVX
NCI-H460 = system: NCI-H460
RPMI-8226 = system: RPMI-8226
SK-MEL-2 = system: SK-MEL-2
CAKI-1 = system: CAKI-1
RXF 393 = system: RXF 393
Malme-3M = system: Malme-3M
ACHN = system: ACHN
A498 = system: A498
Hs-578T = system: Hs-578T
NCI-H226 = system: NCI-H226

Compound: [O-][S+]1CC[S+]([O-])CC[S+]([O-])CC1 (centres undefined)
- GI50 (IGROV-1): > 100 µM (inactive)
- GI50 (OVCAR-4): > 100 µM (inactive)
- GI50 (LOX IMVI): > 100 µM (inactive)
- GI50 (MCF7): > 100 µM (inactive)
- GI50 (MDA-N): > 100 µM (inactive)
- GI50 (KM12): > 100 µM (inactive)
- GI50 (SN12C): > 100 µM (inactive)
- GI50 (A549): > 100 µM (inactive)
- GI50 (SK-OV-3): > 100 µM (inactive)
- GI50 (NCI/ADR-RES): > 100 µM (inactive)
- GI50 (HOP-92): > 100 µM (inactive)
- GI50 (T47D): > 100 µM (inactive)
- GI50 (OVCAR-8): > 100 µM (inactive)
- GI50 (U-251): > 100 µM (inactive)
- GI50 (HT-29): > 100 µM (inactive)
- GI50 (HCT-15): > 100 µM
- GI50 (786-0): > 100 µM (inactive)
- GI50 (NCI-H23): > 100 µM (inactive)
- GI50 (HL-60): > 100 µM (inactive)
- GI50 (SF-268): > 100 µM (inactive)
- GI50 (UACC-62): > 100 µM (inactive)
- GI50 (OVCAR-3): > 100 µM (inactive)
- GI50 (PC-3): > 100 µM (inactive)
- GI50 (SK-MEL-5): > 100 µM (inactive)
- GI50 (M14): > 100 µM (inactive)
- GI50 (HCC 2998): > 100 µM (inactive)
- GI50 (COLO 205): > 100 µM (inactive)
- GI50 (SF-539): > 100 µM (inactive)
- GI50 (SW-620): > 100 µM (inactive)
- GI50 (NCI-H522): > 100 µM (inactive)
- GI50 (DU-145): > 100 µM (inactive)
- GI50 (SR): > 100 µM (inactive)
- GI50 (SF-295): > 100 µM (inactive)
- GI50 (SNB-19): > 100 µM (inactive)
- GI50 (BT-549): > 100 µM (inactive)
- GI50 (HCT-116): > 100 µM (inactive)
- GI50 (MDA-MB-231): > 100 µM (inactive)
- GI50 (TK-10): > 100 µM (inactive)
- GI50 (OVCAR-5): > 100 µM (inactive)
- GI50 (SNB-75): > 100 µM (inactive)
- GI50 (K562): > 100 µM (inactive)
- GI50 (UO-31): > 100 µM (inactive)
- GI50 (UACC-257): > 100 µM (inactive)
- GI50 (HOP-62): > 100 µM (inactive)
- GI50 (CCRF-CEM): > 100 µM (inactive)
- GI50 (MDA-MB-435): > 100 µM (inactive)
- GI50 (SK-MEL-28): > 100 µM (inactive)
- GI50 (MOLT-4): > 100 µM (inactive)
- GI50 (EKVX): > 100 µM (inactive)
- GI50 (NCI-H460): > 100 µM (inactive)

Compound: O=C1c2cc3c(cc2CC12Cc1cc4c(cc1C2=O)CCC4)CCCC3 (centres undefined)
- GI50 (IGROV-1): > 100 µM (inactive)
- GI50 (OVCAR-4): > 100 µM (inactive)
- GI50 (LOX IMVI): > 100 µM (inactive)
- GI50 (MCF7): > 100 µM (inactive)
- GI50 (MDA-N): > 100 µM (inactive)
- GI50 (A549): > 100 µM (inactive)
- GI50 (SK-OV-3): > 100 µM (inactive)
- GI50 (NCI/ADR-RES): > 100 µM (inactive)
- GI50 (RPMI-8226): > 100 µM (inactive)
- GI50 (HOP-92): > 100 µM (inactive)
- GI50 (T47D): > 100 µM (inactive)
- GI50 (OVCAR-8): > 100 µM (inactive)
- GI50 (U-251): 89.1 µM (inactive)
- GI50 (HT-29): > 100 µM (inactive)
- GI50 (HCT-15): > 100 µM
- GI50 (786-0): 76 µM (inactive)
- GI50 (NCI-H23): > 100 µM (inactive)
- GI50 (SK-MEL-2): > 100 µM (inactive)
- GI50 (HL-60): > 100 µM (inactive)
- GI50 (SF-268): > 100 µM (inactive)
- GI50 (CAKI-1): > 100 µM (inactive)
- GI50 (OVCAR-3): > 100 µM (inactive)
- GI50 (PC-3): > 100 µM (inactive)
- GI50 (SK-MEL-5): > 100 µM (inactive)
- GI50 (M14): > 100 µM (inactive)
- GI50 (HCC 2998): > 100 µM (inactive)
- GI50 (SF-539): > 100 µM (inactive)
- GI50 (SW-620): > 100 µM (inactive)
- GI50 (NCI-H522): > 100 µM (inactive)
- GI50 (DU-145): > 100 µM (inactive)
- GI50 (SR): > 100 µM (inactive)
- GI50 (SF-295): > 100 µM (inactive)
- GI50 (SNB-19): > 100 µM (inactive)
- GI50 (RXF 393): > 100 µM (inactive)
- GI50 (HCT-116): > 100 µM (inactive)
- GI50 (MDA-MB-231): > 100 µM (inactive)
- GI50 (TK-10): > 100 µM (inactive)
- GI50 (Malme-3M): 59.4 µM (inactive)
- GI50 (OVCAR-5): > 100 µM (inactive)
- GI50 (SNB-75): > 100 µM (inactive)
- GI50 (K562): > 100 µM (inactive)
- GI50 (UO-31): > 100 µM (inactive)
- GI50 (ACHN): > 100 µM (inactive)
- GI50 (UACC-257): > 100 µM (inactive)
- GI50 (A498): > 100 µM (inactive)
- GI50 (HOP-62): > 100 µM (inactive)
- GI50 (CCRF-CEM): > 100 µM (inactive)
- GI50 (Hs-578T): > 100 µM (inactive)
- GI50 (MDA-MB-435): > 100 µM (inactive)
- GI50 (SK-MEL-28): > 100 µM (inactive)
- GI50 (MOLT-4): > 100 µM (inactive)
- GI50 (EKVX): 95.1 µM (inactive)
- GI50 (NCI-H460): > 100 µM (inactive)

Compound: COc1cc2nc(-c3cccs3)nc(Nc3cccc([N+](=O)[O-])c3)c2cc1OC
- GI50 (IGROV-1): 17.3 µM (inactive)
- GI50 (OVCAR-4): 30.9 µM (inactive)
- GI50 (LOX IMVI): 18.4 µM (inactive)
- GI50 (MCF7): 24.9 µM (inactive)
- GI50 (KM12): 17.9 µM (inactive)
- GI50 (SN12C): 17.4 µM (inactive)
- GI50 (NCI-H226): 18.2 µM (inactive)
- GI50 (A549): 21.1 µM (inactive)
- GI50 (SK-OV-3): 20.3 µM (inactive)
- GI50 (NCI/ADR-RES): 20.8 µM (inactive)
- GI50 (RPMI-8226): 28.1 µM (inactive)
- GI50 (T47D): 16.4 µM (inactive)
- GI50 (OVCAR-8): 21.5 µM (inactive)
- GI50 (U-251): 17.3 µM (inactive)
- GI50 (HT-29): 28.1 µM (inactive)
- GI50 (HCT-15): 16.5 µM
- GI50 (786-0): 21.3 µM (inactive)
- GI50 (NCI-H23): 11 µM (inactive)
- GI50 (SK-MEL-2): 20.7 µM (inactive)
- GI50 (HL-60): 43.4 µM (inactive)
- GI50 (SF-268): 20.3 µM (inactive)
- GI50 (UACC-62): 16.8 µM (inactive)
- GI50 (CAKI-1): 21.9 µM (inactive)
- GI50 (OVCAR-3): 20.7 µM (inactive)
- GI50 (PC-3): 19.6 µM (inactive)
- GI50 (SK-MEL-5): 29.2 µM (inactive)
- GI50 (M14): 17 µM (inactive)
- GI50 (COLO 205): 19.3 µM (inactive)
- GI50 (SF-539): 18.2 µM (inactive)
- GI50 (SW-620): 24.2 µM (inactive)
- GI50 (NCI-H522): 17.6 µM (inactive)
- GI50 (DU-145): 16.3 µM (inactive)
- GI50 (SR): 10.8 µM (inactive)
- GI50 (SF-295): 21.6 µM (inactive)
- GI50 (SNB-19): 17.6 µM (inactive)
- GI50 (RXF 393): 25.9 µM (inactive)
- GI50 (BT-549): 19.5 µM (inactive)
- GI50 (HCT-116): 17.8 µM (inactive)
- GI50 (MDA-MB-231): 18 µM (inactive)
- GI50 (TK-10): 20.8 µM (inactive)
- GI50 (Malme-3M): 18.9 µM (inactive)
- GI50 (OVCAR-5): 17.8 µM (inactive)
- GI50 (SNB-75): 29 µM (inactive)
- GI50 (K562): 39 µM (inactive)
- GI50 (UO-31): 19.2 µM (inactive)
- GI50 (ACHN): 15.7 µM (inactive)
- GI50 (UACC-257): 21.6 µM (inactive)
- GI50 (A498): > 100 µM (inactive)
- GI50 (HOP-62): 18.7 µM (inactive)
- GI50 (CCRF-CEM): 31.5 µM (inactive)
- GI50 (Hs-578T): 26.9 µM (inactive)
- GI50 (MDA-MB-435): 17 µM (inactive)
- GI50 (SK-MEL-28): 23.7 µM (inactive)
- GI50 (MOLT-4): 24.9 µM (inactive)
- GI50 (EKVX): 15.3 µM (inactive)
- GI50 (NCI-H460): 26.3 µM (inactive)
